In one data set the test system is MCF-7 Cells. Description: Cell proliferation inhibition, CTG (CelltiterGlo) method, alone or combined with fulvestrant. Type of data set: cell-based. To be noted: compound alone; for IC50: Homo sapiens, MCF7, 168 h, 7 days; for Maximum Inhibition Rate on MCF-7 Cells: maximum value fitted by GraphPad Prism 8. How it is done: (§1) a). BT-474 cells were cultured in Hybri-Care medium supplemented with 1% antibiotics and 10% FBS, and incubated in the condition of 37°C with 5% CO2; b). MCF-7 cells were cultured in EMEM medium supplemented with 1% antibiotics, 0.01 mg/mL insulin, and 10% FBS, and incubated in the condition of 37°C with 5% CO2; c). ZR-75-1 cells were cultured in RPMI-1640 medium supplemented with 1% antibiotics and 10% FBS, and incubated in the condition of 37°C with 5% CO2; d). T47D cells were cultured in RPMI-1640 medium supplemented with 1% antibiotics, 0.2 U/mL insulin, and 10% FBS, and incubated in the condition of 37°C with 5% CO2; e) CAMA-1 cells were cultured in EMEM medium supplemented with 1% antibiotics and 10% FBS, and incubated in the condition of 37°C with 5% CO2.
(§2) a). Cells were routinely cultured until reaching 80%-90% confluence and when the required cell number was reached, they were harvested; b). Resuspended in the corresponding medium, counted, and prepared into a cell suspension with appropriate density; c). The cell suspension was added to a 384-well plate at 40 µL per well. Table 1. Plating densities of different cell lines
(§3) d). The cells were cultured overnight in an incubator at 37°C with 5% CO2 .
(§4) a). The compound of Formula (A) was serially diluted 3-fold for 10 concentrations starting from a stock solution of 60 mM (using the monofumarate dihydrate of the compound of Formula (A), with the concentration calculated based on the free base of the compound of Formula (A); the compound of Formula (A) or salt thereof was prepared with reference to the preparation method disclosed in WO2022017448A1); b). Fulvestrant was diluted from 10 mM to 2 mM with DMSO, then serially diluted 3-fold for 10 concentrations; c). Fulvestrant was diluted from 2 mM to 0.2 mM with DMSO, then serially diluted 3-fold for 10 concentrations; d). Fulvestrant was diluted from 0.2 mM to 2 µM with DMSO; e). Fulvestrant was diluted from 2 µM to 0.8 µM with DMSO; f). Fulvestrant was diluted from 2 µM to 0.3 µM with DMSO; g) Fulvestrant was diluted from 0.8 µM to 0.08 µM with DMSO; h). The final concentration of DMSO was 0.1%; i). Cells supplemented with DMSO served as control wells for high reading values; j). Cell-free medium served as control wells for low reading values.
24 Hours after MCF-7, T47D, and CAMA-1 cells were plated, the compound was administered alone. For the compound of Formula (A): 20 nL of the compound prepared in step 2.3 a) + 20 nL of DMSO were added. For compound fulvestrant: 20 nL of the compound prepared in step 2.3 c) + 20 nL of DMSO were added.
24 Hours after MCF-7 cells were plated, the compound of Formula (A) was administered in combination with fulvestrant: 20 nL of the compound prepared in step 2.3 a) + 20 nL of the compounds prepared in step 2.3 c), e), and f). […]

The subject of the next data set is ZR-75-1 Cells. The data set is described as above. Type of data set: cell-based. Conditions: compound alone; for IC50: Homo sapiens, ZR-75-1, 168 h, 7 days; for Maximum Inhibition Rate on ZR-75-1 Cells: maximum value fitted by GraphPad Prism 8. The protocol:
as §1, §2, §3, §4
(§5) 24 Hours after BT474 and ZR-75-1 cells were plated, the compound was administered alone. For the compound of Formula (A): 20 nL of the compound prepared in step 2.3 a) + 20 nL of DMSO were added. For the compound fulvestrant: 20 nL of the compound prepared in step 2.3 b) + 20 nL of DMSO were added.
(§6) 24 Hours after BT474 and ZR-75-1 cells were plated, the compound of Formula (A) was administered in combination with fulvestrant: 20 nL of the compound prepared in step 2.3 a) + 20 nL of the compounds prepared in step 2.3 b) and d).
(§7) Fulvestrant for point-to-point combination (nM): 1000, 333, 111, 37, 12.3, 4.1, 1.37, 0.46, 0.15, 0.05, which are respectively combined with the gradient concentrations of the compound of Formula (A); Fulvestrant for single-concentration combination (nM): 1000, 1, which are respectively combined with the gradient concentrations of the compound of Formula (A).
(§8) The compound of Formula (A) (nM): 30000, 10000, 3333, 1111, 370, 123, 41.2, 13.7, 4.57, 1.52; • Fulvestrant for point-to-point combination (nM): 100, 33.3, 11.1, 3.7, 1.23, 0.41, 0.14, 0.046, 0.015, 0.005, which are respectively combined with the gradient concentrations of the compound of Formula (A); • Fulvestrant for single-concentration combination (nM): 1.2, 0.14, which are respectively combined with the gradient concentrations of the compound of Formula (A). d). The cell culture plates were centrifuged at 1000 rpm for 1 min, then placed in an incubator at 37°C with 5% CO2 for 7 days.
(§9) a). 40 µL of CTG reagent (CelltiterGlo kit) was added to each well, placed on a rapid shaker for 2 minutes of oscillation, centrifuged at 1000 rpm for 1 min, and then left at room temperature in the dark for 30 minutes; b). […]

Another data set relates to BT-474 Cells. The data set is described as above. Type of data set: cell-based. To be noted: compound alone; for IC50: Homo sapiens, BT-474, 168 h, 7 days; for Maximum Inhibition Rate on BT-474 Cells: maximum value fitted by GraphPad Prism 8. The protocol: as §1, §2, §3, §4, §5, §6, §7, §8, §9
Data set [1] can be described thus: Plasma pharmacokinetics in the xenograft mice on day 28 of treatment. Type of data set: in vivo, female BALB/c nude mice. To be noted: for AUC(0-inf) / AUC(0-t) / Cmax / Tmax / half-life / MRT inf: female, BALB/c nude; for MRT inf: read-out: MRTInf_obs. The text has this: The purpose of this study was to evaluate the therapeutic efficacy of the compound of Formula (A) in combination with fulvestrant in the MCF-7 human breast cancer subcutaneous xenograft model in female BALB/c nude mice.
On the 28th day of treatment for the mice in Experiment 2, animal plasma was continuously collected for PK detection, with a total of 112 plasma samples and 16 tumor samples. PK sample sampling protocol

Where [2] appears, read: po, analyte: the compound of Formula (A) in plasma, 25 mg/kg p.o. alone (G2) or + Fulvestrant 5 mg/mouse (G4).
Where [3] appears, read: sc, analyte: fulvestrant in plasma, 5 mg/mouse s.c. alone (G3) or + the compound of Formula (A) 25 mg/kg (G4).

Read-outs that look alike come from different tables or passages of the source.

In the case of `CC(C)NC[C@@H](C(=O)N1CCN(c2ncnc3c2[C@H](C)CC(=O)N3)[C@H]2C[C@H]21)c1ccc(Cl)cc1` [The compound of Formula (A), (R)-4-((1S,6R)-5-((S)-2-(4-chlorophenyl)-3-(isopropylamino)propanoyl)-2,5-diazabicyclo[4.1.0]heptan-2-yl)-5-methyl-5,8-dihydropyrido[2,3-d]pyrimidin-7(6H)-one], in the data set with MCF-7 Cells, the concentration for half-maximal inhibition (IC50) (in general, the concentration that inhibits the measured activity by half) came to 0.759 µM and the “Maximum Inhibition Rate on MCF-7 Cells” value was found to be 98.92%. Besides, in the data set on ZR-75-1 Cells, the IC50 was found to be 2.17 µM and the “Maximum Inhibition Rate on ZR-75-1 Cells” value is listed as 92.45%. For the same molecule, in the data set with BT-474 Cells, the IC50 came out at 0.668 µM and the “Maximum Inhibition Rate on BT-474 Cells” value came out at 84.62%. In addition, the AUC%Extrap_obs in data set [1] (analyte: the compound of Formula (A) in plasma, 25 mg/kg p.o. alone (G2) or + Fulvestrant 5 mg/mouse (G4)) came to 1.48%. Also, in data set [1] (setting [2]), the AUC(0-inf) (commonly the area under the concentration-time curve extrapolated to infinity) was 18.8 µg·h/mL; the AUC(0-t) (usually exposure summed from dosing to a finite time, without extrapolation to infinity) came to 18.5 µg·h/mL; the Cmax (commonly the maximum level reached in the sampled fluid or tissue) was 1.34 µg/mL; the Tmax (usually the time at which the peak concentration occurs) turned out to be 2.75 h. Also, in data set [1] (setting [2]), the half-life (in general, the time needed for the level to fall by half in the phase considered) is 7.93 h and the MRT inf is 10.5 h.
In the case of `C[C@]12CC[C@@H]3c4ccc(O)cc4C[C@@H](CCCCCCCCC[S+]([O-])CCCC(F)(F)C(F)(F)F)[C@H]3[C@@H]1CC[C@@H]2O` (some centres unmarked) [Fulvestrant, reference compound], in the data set with MCF-7 Cells, the IC50 stood at 0.00019 µM and the “Maximum Inhibition Rate on MCF-7 Cells” value was determined as 54.67%. Also, in the data set with ZR-75-1 Cells, the IC50 is over 1 µM and the “Maximum Inhibition Rate on ZR-75-1 Cells” value is recorded as 43.96%. In the data set with BT-474 Cells, the IC50 is over 1 µM and the “Maximum Inhibition Rate on BT-474 Cells” value amounted to 43.33%. The AUC%Extrap_obs in data set [1] (analyte: fulvestrant in plasma, 5 mg/mouse s.c. alone (G3) or + the compound of Formula (A) 25 mg/kg (G4)) is reported as 12.6%. Further, in data set [1] (setting [3]), the AUC(0-inf) amounted to 6.61 µg·h/mL, the AUC(0-t) was 5.78 µg·h/mL, the Cmax was determined as 0.268 µg/mL and the Tmax was determined as 0.375 h. Further, in data set [1] (setting [3]), the half-life is 23.6 h and the MRT inf came to 37.7 h.

The values above are taken from EP4729061A1, “USE OF AKT INHIBITOR IN PREPARATION OF DRUG FOR PREVENTING OR TREATING BREAST CANCER” (Nanjing Chia Tai Tianqing Pharmaceutical Co., Ltd., priority 2023, dated 2024).
